Laboratory results: US20230157952A1, “METHOD FOR IMPROVING THE STABILITY OF A PHARMACEUTICAL COMPOSITION COMPRISING A HIGH PENETRATION DRUG, AND THE PHARMACEUTICAL COMPOSITION OBTAINED THEREFROM” (Techfields Inc., priority 2020, published 2023)

Experiment: Effect of temperature (and pH) on the stability of the solution (purity)
Type: physicochemical
Conditions: 7% solution in water

CCN(CC)CCOC(=O)Cc1c(C)n(C(=O)c2ccc(Cl)cc2)c2ccc(OC)cc12.Cl
Purity(%) at day 0 (pH 1.0, day 0): 98.1 ± 0.3% | Purity(%) at day 21 (5° C.) (pH 1.0, day 21, 5° C.): 92.3 ± 0.3% | Purity(%) at day 21 (25° C.) (pH 1.0, day 21, 25° C.): 69.0 ± 0.3% | Purity(%) at day 21 (40° C.) (pH 1.0, day 21, 40° C.): 15.3 ± 0.3% | Purity (%) at day 21 (60° C.) (pH 1.0, day 21, 60° C.): 0% | Purity(%) at day 0 (pH 2.0, day 0): 98.3 ± 0.4% | Purity(%) at day 21 (5° C.) (pH 2.0, day 21, 5° C.): 95.9 ± 0.3% | Purity(%) at day 21 (25° C.) (pH 2.0, day 21, 25° C.): 83.1 ± 0.3% | Purity(%) at day 21 (40° C.) (pH 2.0, day 21, 40° C.): 27.5 ± 0.3% | Purity (%) at day 21 (60° C.) (pH 2.0, day 21, 60° C.): 0% | Purity(%) at day 0 (pH 3.0, day 0): 98.5 ± 0.2% | Purity(%) at day 21 (5° C.) (pH 3.0, day 21, 5° C.): 97.3 ± 0.3% | Purity(%) at day 21 (25° C.) (pH 3.0, day 21, 25° C.): 94.5 ± 0.2% | Purity(%) at day 21 (40° C.) (pH 3.0, day 21, 40° C.): 49.3 ± 0.3% | Purity (%) at day 21 (60° C.) (pH 3.0, day 21, 60° C.): 0% | Purity(%) at day 0 (pH 3.7, day 0): 98.5 ± 0.2% | Purity(%) at day 21 (5° C.) (pH 3.7, day 21, 5° C.): 97.7 ± 0.2% | Purity(%) at day 21 (25° C.) (pH 3.7, day 21, 25° C.): 97.3 ± 0.3% | Purity(%) at day 21 (40° C.) (pH 3.7, day 21, 40° C.): 57.9 ± 0.2% | Purity (%) at day 21 (60° C.) (pH 3.7, day 21, 60° C.): 16.3 ± 0.5% | Purity(%) at day 0 (pH 4.0, day 0): 98.7 ± 0.1% | Purity(%) at day 21 (5° C.) (pH 4.0, day 21, 5° C.): 98.1 ± 0.3% | Purity(%) at day 21 (25° C.) (pH 4.0, day 21, 25° C.): 97.5 ± 0.2% | Purity(%) at day 21 (40° C.) (pH 4.0, day 21, 40° C.): 68.7 ± 0.3% | Purity (%) at day 21 (60° C.) (pH 4.0, day 21, 60° C.): 19.6 ± 0.3% | Purity(%) at day 0 (pH 4.3, day 0): 98.8 ± 0.2% | Purity(%) at day 21 (5° C.) (pH 4.3, day 21, 5° C.): 98.3 ± 0.3% | Purity(%) at day 21 (25° C.) (pH 4.3, day 21, 25° C.): 97.3 ± 0.3% | Purity(%) at day 21 (40° C.) (pH 4.3, day 21, 40° C.): 70.1 ± 0.3% | Purity (%) at day 21 (60° C.) (pH 4.3, day 21, 60° C.): 17.7 ± 0.2% | Purity(%) at day 0 (pH 4.6, day 0): 98.7 ± 0.1% | Purity(%) at day 21 (5° C.) (pH 4.6, day 21, 5° C.): 98.2 ± 0.2% | Purity(%) at day 21 (25° C.) (pH 4.6, day 21, 25° C.): 96.4 ± 0.2% | Purity(%) at day 21 (40° C.) (pH 4.6, day 21, 40° C.): 56.3 ± 0.2% | Purity (%) at day 21 (60° C.) (pH 4.6, day 21, 60° C.): 15.3 ± 0.3% | Purity(%) at day 0 (pH 5.0, day 0): 98.6 ± 0.3% | Purity(%) at day 21 (5° C.) (pH 5.0, day 21, 5° C.): 97.0 ± 0.2% | Purity(%) at day 21 (25° C.) (pH 5.0, day 21, 25° C.): 94.1 ± 0.3% | Purity(%) at day 21 (40° C.) (pH 5.0, day 21, 40° C.): 42.8 ± 0.3% | Purity (%) at day 21 (60° C.) (pH 5.0, day 21, 60° C.): 1.9 ± 0.2% | Purity(%) at day 0 (pH 6.0, day 0): 98.5 ± 0.4% | Purity(%) at day 21 (5° C.) (pH 6.0, day 21, 5° C.): 95.3 ± 0.3% | Purity(%) at day 21 (25° C.) (pH 6.0, day 21, 25° C.): 87.8 ± 0.2% | Purity(%) at day 21 (40° C.) (pH 6.0, day 21, 40° C.): 27.6 ± 0.2% | Purity (%) at day 21 (60° C.) (pH 6.0, day 21, 60° C.): 0% | Purity(%) at day 0 (pH 7.0, day 0): 98.4 ± 0.3% | Purity(%) at day 21 (5° C.) (pH 7.0, day 21, 5° C.): 90.2 ± 0.3% | Purity(%) at day 21 (25° C.) (pH 7.0, day 21, 25° C.): 59.9 ± 0.3% | Purity(%) at day 21 (40° C.) (pH 7.0, day 21, 40° C.): 11.4 ± 0.4% | Purity (%) at day 21 (60° C.) (pH 7.0, day 21, 60° C.): 0% | Purity(%) at day 0 (pH 8.0, day 0): 98.0 ± 0.5% | Purity(%) at day 21 (5° C.) (pH 8.0, day 21, 5° C.): 79.3 ± 0.4% | Purity(%) at day 21 (25° C.) (pH 8.0, day 21, 25° C.): 47.6 ± 0.3% | Purity(%) at day 21 (40° C.) (pH 8.0, day 21, 40° C.): 0% | Purity (%) at day 21 (60° C.) (pH 8.0, day 21, 60° C.): 0%
